The nature of data set [1]: Selectivity index, ratio of IC50 Inhibition of wild type EGFR (unknown origin) to IC50 for Inhibition of EGFR T790M/C797S double mutant (unknown origin).
The target of data set [2] is Epidermal growth factor receptor (Homo sapiens, UniProt P00533, EX19DEL). The data set can be described thus: Inhibition of EGFR del19 (unknown origin) using flurogenic substrate in presence of ATP by HTRF assay. (In TR-FRET formats the signal depends on donor and acceptor labels being close together.)
Data set [3] deals with Epidermal growth factor receptor (Homo sapiens, UniProt P00533). The data set is described as follows: Inhibition of wild type EGFR (unknown origin) using flurogenic substrate in presence of ATP by HTRF assay.
In data set [4] the target is Epidermal growth factor receptor (Homo sapiens, UniProt P00533, C797S/T790M). The data set can be described thus: Inhibition of EGFR T790M/C797S double mutant (unknown origin) using flurogenic substrate in presence of ATP by HTRF assay.
Data set [5] in a line: in vitro. The note with it: human.
Data set [6] is described as follows: in vitro. The note with it: human. This is another data set of the same source.
Data set [7] has as its system NCI-H1299. The data set is described as follows: Antiproliferative activity against human NCI-H1299 cells expressing wild type EGFR assessed as inhibition in cell viability after 72 hrs by CCK8 assay. In kind it is functional, cell-based. The note with it: NCI-H1299, 72 h. (Formazan colour is commonly taken as a measure of viable cells.)
Data set [8] has as its system NCI-H1975. The data set is described as follows: cells. Conditions: Homo sapiens, NCI-H1975, 72 h. In kind it is functional, cell-based.
The subject of data set [9] is A549. The data set can be described thus: Antiproliferative activity against human A549 cells expressing wild type EGFR assessed as inhibition in cell viability after 72 hrs by CCK8 assay. In kind it is functional, cell-based. Conditions: A549, 72 h.
Data set [10] concerns HCC827. The data set is described as follows: Antiproliferative activity against human HCC827 cells expressing EGFR del119 mutant assessed as inhibition in cell viability after 72 hrs by CCK8 assay. The note with it: HCC827, 72 h. In kind it is functional, cell-based.
In data set [11] the test system is NCI-H1975. The data set can be described thus: Induction of cell cycle arrest in human NCI-H1975 cells assessed as accumulation at G2/M phase at 2.5 uM after 36 hrs by PI staining based flow cytometry analysis (reference value: 43.1%). In kind it is functional. Background: A flow cytometer gives signals particle by particle.
For data set [12], the system named is NCI-H1299. The data set is described as follows: Induction of apoptosis in human NCI-H1299 cells assessed as increase in late apoptotic cells at 2.5 uM after 36 hrs by annexin-V-FITC/PI staining based flow cytometric analysis (reference value: 4.39%). In kind it is functional.
Data set [13] concerns NCI-H1299. The data set can be described thus: Induction of apoptosis in human NCI-H1299 cells assessed as increase in viable cells at 2.5 uM after 36 hrs by annexin-V-FITC/PI staining based flow cytometric analysis (reference value: 94.1%). In kind it is functional.
In data set [14] the test system is NCI-H1299. The data set can be described thus: Induction of apoptosis in human NCI-H1299 cells assessed as increase in early apoptotic cells at 2.5 uM after 36 hrs by annexin-V-FITC/PI staining based flow cytometric analysis (reference value: 0.79%). In kind it is functional.
For data set [15], the system named is NCI-H1975. The data set is described as follows: Induction of apoptosis in human NCI-H1975 cells assessed as increase in viable cells at 2.5 uM after 36 hrs by annexin-V-FITC/PI staining based flow cytometric analysis (reference value: 94.6%). In kind it is functional.
Data set [16] concerns NCI-H1975. The data set is described as follows: Induction of apoptosis in human NCI-H1975 cells assessed as increase in necrotic cells at 2.5 uM after 36 hrs by annexin-V-FITC/PI staining based flow cytometric analysis (reference value: 0.35%). In kind it is functional.
Data set [17] has as its system NCI-H1299. The data set is described as follows: Induction of apoptosis in human NCI-H1299 cells assessed as increase in necrotic cells at 2.5 uM after 36 hrs by annexin-V-FITC/PI staining based flow cytometric analysis (reference value: 0.75%). In kind it is functional.
Data set [18] concerns NCI-H1299. The data set is described as follows: Induction of cell cycle arrest in human NCI-H1299 cells assessed as accumulation at G2/M phase at 2.5 uM after 36 hrs by PI staining based flow cytometry analysis (reference value: 5.6%). In kind it is functional.
For data set [19], the system named is NCI-H1299. The data set can be described thus: Induction of cell cycle arrest in human NCI-H1299 cells assessed as accumulation at G0/G1 phase at 2.5 uM after 36 hrs by PI staining based flow cytometry analysis (reference value: 70.2%). In kind it is functional.
Data set [20] deals with NCI-H1299. The data set is described as follows: Induction of cell cycle arrest in human NCI-H1299 cells assessed as accumulation at S phase at 2.5 uM after 36 hrs by PI staining based flow cytometry analysis (reference value: 24.8%). In kind it is functional.
Data set [21] has as its system NCI-H1975. The data set can be described thus: Induction of apoptosis in human NCI-H1975 cells assessed as increase in late apoptotic cells at 2.5 uM after 36 hrs by annexin-V-FITC/PI staining based flow cytometric analysis (reference value: 3.85%). In kind it is functional.
Data set [22] relates to NCI-H1975. The data set is described as follows: Induction of cell cycle arrest in human NCI-H1975 cells assessed as accumulation at S phase at 2.5 uM after 36 hrs by PI staining based flow cytometry analysis (reference value: 32.7 %). In kind it is functional.
Data set [23] relates to NCI-H1975. The data set is described as follows: Induction of cell cycle arrest in human NCI-H1975 cells assessed as accumulation at G0/G1 phase at 2.5 uM after 36 hrs by PI staining based flow cytometry analysis (reference value: 24.2%). In kind it is functional.
The test system of data set [24] is NCI-H1975. The data set is described as follows: Induction of apoptosis in human NCI-H1975 cells assessed as increase in early apoptotic cells at 2.5 uM after 36 hrs by annexin-V-FITC/PI staining based flow cytometric analysis (reference value: 1.24%). In kind it is functional.

These results are taken from ChEMBL document CHEMBL5046228 (Eur J Med Chem, 2022).

Some results are limits rather than exact numbers.

Epidermal growth factor receptor (Homo sapiens, UniProt P00533), sequence (P00533 whole entry): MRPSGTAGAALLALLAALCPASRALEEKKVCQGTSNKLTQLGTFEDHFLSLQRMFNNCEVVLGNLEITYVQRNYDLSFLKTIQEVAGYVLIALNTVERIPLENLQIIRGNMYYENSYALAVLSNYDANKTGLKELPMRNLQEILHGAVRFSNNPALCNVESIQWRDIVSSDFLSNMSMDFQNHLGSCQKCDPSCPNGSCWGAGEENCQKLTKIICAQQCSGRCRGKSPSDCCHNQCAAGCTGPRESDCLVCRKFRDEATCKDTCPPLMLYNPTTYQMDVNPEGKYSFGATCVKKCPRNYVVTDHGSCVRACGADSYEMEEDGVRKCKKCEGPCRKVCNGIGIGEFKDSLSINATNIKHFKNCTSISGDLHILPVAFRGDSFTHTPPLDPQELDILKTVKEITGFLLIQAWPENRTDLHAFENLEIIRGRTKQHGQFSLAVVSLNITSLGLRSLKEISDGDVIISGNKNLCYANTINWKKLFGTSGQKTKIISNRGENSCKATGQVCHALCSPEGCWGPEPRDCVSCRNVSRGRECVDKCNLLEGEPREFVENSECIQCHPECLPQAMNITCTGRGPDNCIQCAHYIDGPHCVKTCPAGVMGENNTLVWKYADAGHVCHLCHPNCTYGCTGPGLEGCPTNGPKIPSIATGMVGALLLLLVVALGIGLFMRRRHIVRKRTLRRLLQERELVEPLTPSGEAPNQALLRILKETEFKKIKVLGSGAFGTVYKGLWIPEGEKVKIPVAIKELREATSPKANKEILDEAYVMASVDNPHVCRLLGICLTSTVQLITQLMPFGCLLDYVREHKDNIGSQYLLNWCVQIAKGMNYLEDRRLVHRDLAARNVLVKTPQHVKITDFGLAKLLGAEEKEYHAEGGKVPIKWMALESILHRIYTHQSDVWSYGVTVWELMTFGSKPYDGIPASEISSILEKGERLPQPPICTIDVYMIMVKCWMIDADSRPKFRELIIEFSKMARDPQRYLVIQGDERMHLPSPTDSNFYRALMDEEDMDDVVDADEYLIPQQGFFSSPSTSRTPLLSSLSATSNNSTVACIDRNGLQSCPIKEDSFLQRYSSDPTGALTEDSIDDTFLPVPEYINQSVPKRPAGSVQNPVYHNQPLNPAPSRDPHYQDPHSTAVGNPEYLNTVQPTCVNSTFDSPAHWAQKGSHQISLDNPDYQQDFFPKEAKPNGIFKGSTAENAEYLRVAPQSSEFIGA
Epidermal growth factor receptor (Homo sapiens, UniProt P00533, EX19DEL), sequence (P00533 whole entry, looked up, stated change not applied): as the sequence (P00533 whole entry) above
Epidermal growth factor receptor (Homo sapiens, UniProt P00533, C797S/T790M), sequence (P00533 25-1210 T790M/C797S limits assumed): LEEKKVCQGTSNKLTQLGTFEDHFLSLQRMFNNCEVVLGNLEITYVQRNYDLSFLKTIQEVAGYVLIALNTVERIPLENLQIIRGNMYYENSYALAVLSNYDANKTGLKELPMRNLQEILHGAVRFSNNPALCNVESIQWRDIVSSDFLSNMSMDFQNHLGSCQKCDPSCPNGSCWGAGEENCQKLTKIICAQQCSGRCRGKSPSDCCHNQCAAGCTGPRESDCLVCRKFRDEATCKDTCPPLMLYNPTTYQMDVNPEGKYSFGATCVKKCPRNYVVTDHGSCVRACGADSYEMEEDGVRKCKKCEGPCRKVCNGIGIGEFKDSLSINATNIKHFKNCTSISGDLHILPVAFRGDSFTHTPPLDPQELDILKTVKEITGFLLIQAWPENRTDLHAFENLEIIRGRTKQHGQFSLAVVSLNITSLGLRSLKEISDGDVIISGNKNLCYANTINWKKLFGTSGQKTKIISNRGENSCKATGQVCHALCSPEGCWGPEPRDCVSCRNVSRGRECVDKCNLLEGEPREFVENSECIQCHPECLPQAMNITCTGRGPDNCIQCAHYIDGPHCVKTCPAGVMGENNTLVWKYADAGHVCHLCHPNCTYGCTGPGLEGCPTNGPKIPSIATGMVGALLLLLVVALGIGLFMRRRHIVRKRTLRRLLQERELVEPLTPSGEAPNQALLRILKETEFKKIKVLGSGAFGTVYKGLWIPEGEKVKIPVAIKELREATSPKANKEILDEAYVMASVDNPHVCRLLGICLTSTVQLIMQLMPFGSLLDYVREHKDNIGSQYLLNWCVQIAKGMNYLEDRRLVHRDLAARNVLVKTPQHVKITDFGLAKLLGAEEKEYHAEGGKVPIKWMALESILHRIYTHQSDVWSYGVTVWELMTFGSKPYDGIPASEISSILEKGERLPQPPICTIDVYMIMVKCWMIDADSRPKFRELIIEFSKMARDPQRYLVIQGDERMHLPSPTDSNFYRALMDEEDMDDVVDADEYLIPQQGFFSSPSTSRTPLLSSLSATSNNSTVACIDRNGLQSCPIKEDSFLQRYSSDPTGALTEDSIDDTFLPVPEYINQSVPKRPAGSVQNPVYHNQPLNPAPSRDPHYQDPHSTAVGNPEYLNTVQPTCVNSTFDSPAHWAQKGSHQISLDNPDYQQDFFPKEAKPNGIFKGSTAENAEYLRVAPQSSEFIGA

`C=CC(=O)Nc1cc(Nc2nccc(Nc3cn(C)c4ccccc34)n2)c(OC)cc1N(C)CCN(C)CC(=C)C`: in data set [1], the Ratio IC50 was 31.4. In addition, the IC50 in [2] was determined as 0.064 µM; in data set [3] it was 0.181 µM; in [4], 0.00575 µM.

With `C=CC(=O)Nc1cc(Nc2nccc(Nc3cn(C)c4ccccc34)n2)c(OC)cc1N(C)CCN(C)C(=O)C=C`, the Ratio IC50 in data set [1] is more than 273. Besides, the results for the IC50 in [2], in [3] and in data set [4] were 0.723 µM, more than 10 µM and 0.0366 µM, respectively.

On to `C=CC(=O)Nc1cc(Nc2nccc(Nc3cn(C)c4ccccc34)n2)c(OC)cc1N(C)CCN(C)CC(=O)OC`, for which the figures for the selectivity ratio in [5] and in [6] were 637 and 624, respectively. Further, the IC50 was found to be 5.3 µM in [7]; 0.00831 µM in [8]; 5.19 µM in data set [9]; 0.0464 µM in data set [2]; 0.346 µM in data set [10]; 0.453 µM in [3]. Besides, in [4], the IC50 was 0.00575 µM. For the same compound, the Ratio IC50 in data set [1] came to 78.8.

`C=CCCN(C)CCN(C)c1cc(OC)c(Nc2nccc(Nc3cn(C)c4ccccc34)n2)cc1NC(=O)C=C`: the results for the selectivity ratio in data set [5] and in [6] were 881 and 687, respectively. Moreover, the 50% inhibitory concentration (IC50) in [7] came out at 1.77 µM; in data set [8], 0.00201 µM; in data set [9] it was 1.38 µM; in data set [2], 0.0131 µM; in data set [10], 0.0247 µM; in [3], 0.0427 µM. The IC50 in data set [4] was found to be 0.002 µM. Further, the Ratio IC50 in data set [1] was 21.3.

Take `C=CC(=O)Nc1cc(Nc2nccc(Nc3cn(C)c4ccccc34)n2)c(OC)cc1N(C)CCN(C)C(=O)C#CC`: the Ratio IC50 in data set [1] was more than 172. For the same compound, the IC50 is 0.949 µM in data set [2], more than 10 µM in data set [3] and 0.058 µM in data set [4].

For `C=CC(=O)Nc1cc(Nc2nccc(Nc3cn(C)c4ccccc34)n2)c(OC)cc1N(C)CCN(C)C(=O)c1ccc(Br)cc1`, the selectivity ratio in data set [5] and in [6] was 3370 each time. Besides, the 50% inhibitory concentration (IC50) in data set [7] is more than 100 µM; in data set [8], 0.0379 µM; in data set [9], more than 100 µM; in data set [2] it was 0.301 µM; in data set [10], 7.15 µM; in data set [3] it was more than 10 µM. For the same compound, in [4], the 50% inhibitory concentration (IC50) was 0.0125 µM. In addition, in data set [1], the Ratio IC50 was more than 797.

`C=CC(=O)Nc1cc(Nc2nccc(Nc3cn(C)c4ccccc34)n2)c(OC)cc1N(C)CCN(C)Cc1ccccc1`: the IC50 in data set [7] came out at 3.98 µM; in [8] it was 0.00402 µM; in data set [9], 2.61 µM; in data set [10] it was 0.117 µM.

As for `C#CCN(C)CCN(C)c1cc(OC)c(Nc2nccc(Nc3ccn(C)n3)n2)cc1NC(=O)C=C`, in [1], the Ratio IC50 came to 5.92. Besides, the IC50 worked out at 0.0223 µM in [2], 0.0508 µM in data set [3] and 0.00858 µM in data set [4].

For the compound `C=CC(=O)Nc1cc(Nc2nccc(Nc3cn(C)c4ccccc34)n2)c(OC)cc1N(C)CCN(C)C(=O)OC`, the Ratio IC50 in data set [1] amounted to 235. In addition, the values for the IC50 in [2], in data set [3] and in data set [4] were 0.213 µM, 2.91 µM and 0.0123 µM, respectively.

Consider `C=CC(=O)Nc1cc(Nc2nccc(Nc3cnn(CC)c3)n2)c(OC)cc1N(C)CCN(C)C`, for which, in [1], the Ratio IC50 came to 12.5. Also, the 50% inhibitory concentration (IC50) is 0.0187 µM in [2], 0.101 µM in [3] and 0.00802 µM in [4].

Take `C=CC(=O)Nc1cc(Nc2nccc(Nc3cnn(C)c3)n2)c(OC)cc1N(C)CCN(C)C`: in data set [1], the Ratio IC50 was found to be 23.1. Also, the values for the IC50 in [2], in data set [3] and in data set [4] were 0.0543 µM, 0.495 µM and 0.0214 µM, respectively.

In the case of `C=CC(=O)Nc1cc(Nc2nccc(Nc3ccn(C)n3)n2)c(OC)cc1N(C)CCN(C)CC(=O)OC`, in data set [1], the Ratio IC50 came to 22.5. In addition, the IC50 in [2] came to 0.106 µM; in [3], 0.952 µM; in data set [4], 0.0424 µM.

As for `C=CC(=O)Nc1cc(Nc2nccc(Nc3ccn(C)n3)n2)c(OC)cc1N(C)CCN(C)CC(=C)C`, the Ratio IC50 in data set [1] is 8.02. Also, the IC50 in [2] amounted to 0.625 µM; in [3], 3.18 µM; in data set [4], 0.397 µM.

Regarding `C=CC(=O)Nc1cc(Nc2nccc(Nc3cn(C)c4ccccc34)n2)c(OC)cc1N(C)CCN(C)Cc1ccc(Br)cc1`, the selectivity ratio in data set [5] and in [6] was 2640 throughout. For the same compound, the IC50 was more than 100 µM in data set [7]; 0.0297 µM in data set [8]; more than 100 µM in data set [9]; 0.143 µM in data set [2]; 6.46 µM in data set [10]; 2.47 µM in data set [3]. Also, in data set [4], the IC50 is 0.00813 µM. The Ratio IC50 in [1] amounted to 304.

Take `C=CC(=O)Nc1cc(Nc2nccc(Nc3ccn(C)n3)n2)c(OC)cc1N(C)CCN(C)C(=O)OC`: the Ratio IC50 in data set [1] stood at 9.84. Further, the IC50 came out at 0.288 µM in [2], 4.93 µM in [3] and 0.502 µM in [4].

Consider `C=CC(=O)Nc1cc(Nc2nccc(-c3cn(C)c4ccccc34)n2)c(OC)cc1N(C)CCN(C)C` [OSIMERTINIB], for which the Activity in data set [11] stood at 65.4%; in data set [12], 7.44%; in data set [13], 90.7%; in [14], 1.47%; in data set [15], 41.1%; in [16], 0.016%. The Activity in data set [17] is 0.43%; in data set [18] it was 8.4%; in data set [19], 67.3%; in [20], 24.3%; in data set [21], 18.1%; in [22], 17.5%. Besides, the values for the Activity in data set [23] and in [24] were 17.1% and 40.8%, respectively. For the same compound, the IC50 amounted to 2.84 µM in data set [7], 0.335 µM in data set [9] and 0.00173 µM in data set [10].

Take `C=CC(=O)Nc1cc(Nc2nccc(Nc3ccn(C)n3)n2)c(OC)cc1N(C)CCN(C)C`: the Ratio IC50 in [1] came to 15.6. The 50% inhibitory concentration (IC50) in data set [2] came out at 0.0126 µM; in data set [3], 0.0965 µM; in [4], 0.0062 µM.

Consider `C=CC(=O)Nc1cc(Nc2nccc(Nc3cn(C)nc3C)n2)c(OC)cc1N(C)CCN(C)C`, for which the Ratio IC50 in data set [1] worked out at 12.6. In addition, the IC50 in data set [2] worked out at 0.0116 µM; in [3], 0.0713 µM; in [4], 0.00565 µM.

By IC50 is commonly meant the concentration needed to halve the response being measured.
